Test results: PMC10709440, “High-throughput ligand profile characterization in novel cell lines expressing seven heterologous insect olfactory receptors for the detection of volatile plant biomarkers” (Scientific Reports, 2023)
Values joined by “and” are separate entries in the source; they are usually repeats but may differ in a detail not shown here. Equal entries are not always repeated. Where two headings read alike, the source gives them in different places.

Columns and labels:
Drosophila OR10a = target: T1, Drosophila OR10a (Drosophila melanogaster, UniProt Q9VYZ1); experiment: Calcium ion fluorescence (GCaMP6) assay, OR10a stable HEK293 cell line; assay type: cell-based; design: key to DF norm AVERAGE OR10a: VOC ∆F divided by the plate's mean ∆F response to 50 µM VUAA1
T1 construct: expressed in transfected cells
T1 sequence (Q9VYZ1 1-406): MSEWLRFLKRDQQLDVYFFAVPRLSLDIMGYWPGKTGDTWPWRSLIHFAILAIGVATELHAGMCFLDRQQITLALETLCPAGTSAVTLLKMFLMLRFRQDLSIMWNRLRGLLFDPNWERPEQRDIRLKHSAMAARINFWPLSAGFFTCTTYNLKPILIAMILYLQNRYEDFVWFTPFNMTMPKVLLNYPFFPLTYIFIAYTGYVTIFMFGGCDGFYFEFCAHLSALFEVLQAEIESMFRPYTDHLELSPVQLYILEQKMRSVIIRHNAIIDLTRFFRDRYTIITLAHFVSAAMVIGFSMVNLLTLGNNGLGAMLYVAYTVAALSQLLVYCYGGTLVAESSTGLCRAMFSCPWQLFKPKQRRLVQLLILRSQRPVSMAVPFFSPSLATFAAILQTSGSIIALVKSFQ
T1 sequence (Q9VNB5 1-486 partner): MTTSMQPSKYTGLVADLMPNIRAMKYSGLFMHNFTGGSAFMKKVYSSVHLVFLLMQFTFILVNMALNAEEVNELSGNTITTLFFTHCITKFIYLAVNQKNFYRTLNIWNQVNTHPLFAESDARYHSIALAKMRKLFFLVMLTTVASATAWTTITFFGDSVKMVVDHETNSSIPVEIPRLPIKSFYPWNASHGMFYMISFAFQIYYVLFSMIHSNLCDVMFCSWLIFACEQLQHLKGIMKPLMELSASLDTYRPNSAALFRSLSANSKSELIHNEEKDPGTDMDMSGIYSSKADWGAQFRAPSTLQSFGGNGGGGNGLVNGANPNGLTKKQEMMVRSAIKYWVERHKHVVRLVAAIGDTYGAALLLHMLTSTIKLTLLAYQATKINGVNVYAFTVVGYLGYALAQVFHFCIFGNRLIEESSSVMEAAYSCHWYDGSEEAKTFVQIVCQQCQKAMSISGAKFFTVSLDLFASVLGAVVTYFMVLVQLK
Procedure, shortened: (§1)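 Responses are VUAA1-normalized ΔF: each VOC-evoked calcium signal, (FMAX−F0)/F0 over 30 s after injection, divided by the same line's mean 50 µM VUAA1 response. Cells were doxycycline-induced HEK293 with GCaMP6 and the cognate Drosophila OR, in HEPES buffer pH 7.3; ligands tested 0.01–100 μM.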

Drosophila OR13a = target: T2, Drosophila OR13a (Drosophila melanogaster, UniProt Q9VXL0); experiment: Calcium ion fluorescence (GCaMP6) assay, OR13a stable HEK293 cell line; assay type: cell-based; design: key to DF norm AVERAGE OR13a: VOC ∆F divided by the plate's mean ∆F response to 50 µM VUAA1
T2 construct: expressed in transfected cells
T2 sequence (Q9VXL0 1-418): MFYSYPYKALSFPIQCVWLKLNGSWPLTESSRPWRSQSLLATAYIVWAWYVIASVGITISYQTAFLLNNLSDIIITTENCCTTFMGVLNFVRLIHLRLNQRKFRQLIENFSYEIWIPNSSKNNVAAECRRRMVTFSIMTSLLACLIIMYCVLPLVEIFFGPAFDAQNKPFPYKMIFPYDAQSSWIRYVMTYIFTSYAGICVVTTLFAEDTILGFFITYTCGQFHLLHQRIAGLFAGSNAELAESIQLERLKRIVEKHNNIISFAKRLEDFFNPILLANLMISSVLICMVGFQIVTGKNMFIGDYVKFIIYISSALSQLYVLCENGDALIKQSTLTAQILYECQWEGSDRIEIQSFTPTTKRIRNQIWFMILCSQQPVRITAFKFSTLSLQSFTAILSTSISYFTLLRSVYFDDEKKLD
T2 sequence (Q9VNB5 1-486 partner): T1 sequence (Q9VNB5 1-486 partner)
Procedure, shortened: as §1

[1] = HEK293, read-out: OR10a Average response (VUAA1-normalized)
[2] = HEK293, read-out: OR10a response (VUAA1-normalized response)
[3] = ligand concentration 1 (unit not given), threshold 0.05, below shown as 0
[4] = ligand concentration 10 (unit not given), threshold 0.05, below shown as 0
[5] = ligand concentration 100 (unit not given), threshold 0.05, below shown as 0
[6] = HEK293, read-out: OR13a Average response (VUAA1-normalized)
[7] = HEK293, read-out: OR13a response (VUAA1-normalized response)

C=CC(O)CCCCC (stereo not drawn) [1-octen-3-ol]
DF norm AVERAGE OR10a (Drosophila OR10a): 0 | activation at 1 µM (Drosophila OR10a; HEK293, 1 μM VOC, 50 μM VUAA1 = 1, responses not exceeding 0.05 considered 0, read-out: OR10a Average response (VUAA1-normalized)): 0% | activation at 10 µM (Drosophila OR10a; HEK293, 10 μM VOC, 50 μM VUAA1 = 1, responses not exceeding 0.05 considered 0, read-out: OR10a Average response (VUAA1-normalized)): 2.34% | activation at 100 µM (Drosophila OR10a; HEK293, 100 μM VOC, 50 μM VUAA1 = 1, responses not exceeding 0.05 considered 0, read-out: OR10a Average response (VUAA1-normalized)): 4.52% | activation at 1 µM (Drosophila OR10a; HEK293, read-out: OR10a response (VUAA1-normalized response), VOC concentration 1 μM): 0% | activation at 10 µM (Drosophila OR10a; HEK293, read-out: OR10a response (VUAA1-normalized response), VOC concentration 10 μM): 0% | activation at 100 µM (Drosophila OR10a; HEK293, read-out: OR10a response (VUAA1-normalized response), VOC concentration 100 μM): 0% | EC50 (Drosophila OR13a; AVERAGE EC50, the 12th table, corresponds to average EC50, given with 95% confidence interval): 1440 nM | EC50 (Drosophila OR13a; EC50, AVERAGE of replicate fits, the 12th table, N 5): 1440 nM | EC50 (Drosophila OR13a; EC50, AVERAGE of replicate fits, the 12th table, arithmetic average, N 5): 1630 nM | EC50 (Drosophila OR13a; EC50, OR13a cell line, fitted Hill equation, Hill coefficient constrained to 1, maximal response max 1): 1440 nM | EC50 (Drosophila OR13a; EC50, fitted average curve, the 12th table, fit to the average curve, n 0.854956): 1410 nM | EC50 (Drosophila OR13a; EC50, fitted parameter per biological replicate, the 12th table, OR13a D-R 1-octen-3-ol, individual replicate fits, MIN 0, n 1): 2370 nM and 2300 nM and 753 nM and 1970 nM and 761 nM | EC50 (Drosophila OR13a; EC50, fitted parameter per biological replicate, the 12th table, individual replicate fits): 2370 nM and 2300 nM and 753 nM and 1970 nM and 761 nM | activation at 1 µM (Drosophila OR13a; HEK293, read-out: OR13a Average response (VUAA1-normalized), 1 μM VOC, 50 μM VUAA1 = 1, responses not exceeding 0.05 considered 0): 31% | activation at 10 µM (Drosophila OR13a; HEK293, read-out: OR13a Average response (VUAA1-normalized), 10 μM VOC, 50 μM VUAA1 = 1, responses not exceeding 0.05 considered 0): 41% | activation at 100 µM (Drosophila OR13a; HEK293, read-out: OR13a Average response (VUAA1-normalized), 100 μM VOC, 50 μM VUAA1 = 1, responses not exceeding 0.05 considered 0): 38% | activation at 1 µM (Drosophila OR13a; HEK293, read-out: OR13a response (VUAA1-normalized response), VOC concentration 1 μM): 31% | activation at 10 µM (Drosophila OR13a; HEK293, read-out: OR13a response (VUAA1-normalized response), VOC concentration 10 μM): 41% | activation at 100 µM (Drosophila OR13a; HEK293, read-out: OR13a response (VUAA1-normalized response), VOC concentration 100 μM): 38% | Emax (Drosophila OR13a; HEK293, read-out: VUAA1 normalized MAX response): 46% | DF norm AVERAGE OR13a (Drosophila OR13a; concentration 1, normalized fluorescence change, values below 0.05 threshold given as 0): 0.3125 | DF norm AVERAGE OR13a (Drosophila OR13a; concentration 10, normalized fluorescence change, values below 0.05 threshold given as 0): 0.4133 | DF norm AVERAGE OR13a (Drosophila OR13a; concentration 100, normalized fluorescence change, values below 0.05 threshold given as 0): 0.3797 | dose-response, response per biological replicate (Drosophila OR13a; the 12th table, VOC concentration 0.15): 0 (2×) and 0.1313 | dose-response, AVERAGE response (Drosophila OR13a; the 12th table, VOC concentration 0.15, N 3): 0.04376 | dose-response, response per biological replicate (Drosophila OR13a; the 12th table, VOC concentration 0.3): 0 (3×) and 0.1249 and 0.1272 | dose-response, AVERAGE response (Drosophila OR13a; the 12th table, VOC concentration 0.3, N 5): 0.0504 | dose-response, response per biological replicate (Drosophila OR13a; the 12th table, VOC concentration 0.6): 0 (2×) and 0.1801 and 0.08156 and 0.213 | dose-response, AVERAGE response (Drosophila OR13a; the 12th table, VOC concentration 0.6, N 5): 0.09494 | dose-response, response per biological replicate (Drosophila OR13a; the 12th table, VOC concentration 1.25): 0.2071 and 0.2793 and 0.1886 and 0.3516 | dose-response, AVERAGE response (Drosophila OR13a; the 12th table, VOC concentration 1.25, N 4): 0.2566 | dose-response, response per biological replicate (Drosophila OR13a; the 12th table, VOC concentration 2.5): 0.2646 and 0.1888 and 0.4175 and 0.197 and 0.3823 | dose-response, AVERAGE response (Drosophila OR13a; the 12th table, VOC concentration 2.5, N 5): 0.2901 | dose-response, response per biological replicate (Drosophila OR13a; the 12th table, VOC concentration 5): 0.42 and 0.3195 and 0.4159 and 0.2978 and 0.4731 | dose-response, AVERAGE response (Drosophila OR13a; the 12th table, VOC concentration 5, N 5): 0.3853 | dose-response, response per biological replicate (Drosophila OR13a; the 12th table, VOC concentration 10): 0.4322 and 0.4316 and 0.4215 and 0.2626 and 0.4446 | dose-response, AVERAGE response (Drosophila OR13a; the 12th table, VOC concentration 10, N 5): 0.3985 | dose-response, response per biological replicate (Drosophila OR13a; the 12th table, VOC concentration 20): 0.4616 and 0.4143 and 0.5545 and 0.335 and 0.5659 | dose-response, AVERAGE response (Drosophila OR13a; the 12th table, VOC concentration 20, N 5): 0.4662 | dose-response, response per biological replicate (Drosophila OR13a; the 12th table, VOC concentration 40): 0.4507 and 0.4868 and 0.5125 and 0.286 and 0.5426 | dose-response, AVERAGE response (Drosophila OR13a; the 12th table, VOC concentration 40, N 5): 0.4557 | dose-response, response per biological replicate (Drosophila OR13a; the 12th table, VOC concentration 60): 0.3021 and 0.4978 and 0.4725 and 0.5843 | dose-response, AVERAGE response (Drosophila OR13a; the 12th table, VOC concentration 60, N 4): 0.4642 | dose-response, response per biological replicate (Drosophila OR13a; the 12th table, VOC concentration 80): 0.4797 and 0.3236 and 0.407 and 0.4017 and 0.4897 | dose-response, AVERAGE response (Drosophila OR13a; the 12th table, VOC concentration 80, N 5): 0.4203 | dose-response, response per biological replicate (Drosophila OR13a; the 12th table, VOC concentration 100): 0.3778 and 0.3442 and 0.2898 and 0.4501 | dose-response, AVERAGE response (Drosophila OR13a; the 12th table, VOC concentration 100, N 4): 0.3654 | AVERAGE MAX (Drosophila OR13a; the 12th table, average of replicate fits, N 5): 0.459 | MAX, fitted average curve (Drosophila OR13a; the 12th table, fit to the average curve, n 0.854956): 0.4618 | MAX, fitted parameter per biological replicate (Drosophila OR13a; the 12th table, individual replicate fits): 0.5125 and 0.4135 and 0.4717 and 0.37 and 0.5273

CCc1ccccc1 [ethylbenzene]
activation at 1 µM (Drosophila OR10a; [1]): 17% | activation at 10 µM (Drosophila OR10a; [1]): 3.3% | activation at 100 µM (Drosophila OR10a; [1]): 6% | activation at 1 µM (Drosophila OR10a; [2]): 17% | activation at 10 µM (Drosophila OR10a; [2]): 0% | activation at 100 µM (Drosophila OR10a; [2]): 6% | DF norm AVERAGE OR10a (Drosophila OR10a; [3]): 0.1713 | DF norm AVERAGE OR10a (Drosophila OR10a; [4]): 0 | DF norm AVERAGE OR10a (Drosophila OR10a; [5]): 0.05742 | activation at 1 µM (Drosophila OR13a; [6]): 1.44% | activation at 10 µM (Drosophila OR13a; [6]): 1.55% | activation at 100 µM (Drosophila OR13a; [6]): 0% | activation at 1 µM (Drosophila OR13a; [7]): 0% | activation at 10 µM (Drosophila OR13a; [7]): 0% | activation at 100 µM (Drosophila OR13a; [7]): 0% | DF norm AVERAGE OR13a (Drosophila OR13a; [3]): 0 | DF norm AVERAGE OR13a (Drosophila OR13a; [4]): 0 | DF norm AVERAGE OR13a (Drosophila OR13a; [5]): 0
